According to publication PMC10761396, “Evaluation of new alternative methods for the identification of estrogenic, androgenic and steroidogenic effects: a comparative in vitro/in silico study” (Archives of Toxicology, 2023):
Values after ≈ are worked out from the molar mass of the structure shown. Where two headings read alike, the source gives them in different places.

Legend:
[1] = tested on: AR; parameters: method as in Park et al. [2021]; conditions: ref Park et al. [2021]; cited from earlier work
[2] = tested on: ER; experiment: ToxCast ER assays and final ToxCast call; conditions: for Final "true" call (ToxCast) ER: from active ToxCast assays, cytotoxicity, ToxCast Pathway Model and CERAPP Potency Level
From the text: (§1) A rich source of data can be found in the EPA's ToxCast database (US EPA). This contains ED data for ~ 1800 chemicals in more than 700 high-throughput assay endpoints that cover a range of high-level cell responses. The US EPA is running an Endocrine Disruption Screening Program (EDSP), with the aim of prioritising chemicals using high-throughput screening methods and computational toxicology approaches to evaluate thousands of chemicals for ED activities. The OECD framework for ED assessment (OECD [2018]) requires animal testing at higher levels, where relevant in vitro alternatives are missing e.g. for developmental, reproductive, neurological and immune effects. However, such follow-up testing is not possible for the cosmetics industry especially in the EU due to the complete animal testing ban which came into force in March 2013 (EU [2009]). Even for other industries, animal models are not suitable for assessing ED effects due to issues relating to ethics, capacity, speed and relevance (Patisaul et al. [2018]). Therefore, chemicals which cannot be evaluated using in vivo method must be assessed using alternative methods e.g. in silico and in vitro methods listed in Levels 1 and 2 of the framework described in the OECD 150 test guideline (OECD [2018]).
(§2) The performance of different in silico models for ED effects tends to be evaluated on single model for a single effect, such as ER or AR binding, agonism or antagonism (normally by the developer), or a limited number of models using multiple chemicals (Weyrich et al. [2022]). Multi-organisation collaborations have also evaluated multiple models for a specific effect e.g. ER (Mansouri et al. [2016]) and AR (Mansouri et al. [2020]) effects. Therefore, we have conducted a side-by-side comparison of multiple different in silico models covering three pathways in ED, namely ER, AR and aromatase inhibition and compared these with ToxCast-derived final calls, as well as with results from in vitro assays. The efficiency of the in silico models was evaluated as a metric for the ability of the in silico model to generate concrete predictions. […] In vivo data were available for some but not all chemicals; therefore, an evaluation of the performance of the methods was made by comparing the derived overall calls from in silico models with those from the ToxCast database. The final call for each chemical evaluated in the ToxCast assays was made by considering the active-flagged assays and the corresponding cytotoxicity levels, the ToxCast Pathway Model (Browne et al. [2015]) and the CERAPP Potency Level (Mansouri et al. [2016]) for ER effects and the ToxCast Pathway Model (Kleinstreuer et al. [2017]) for AR effects (see Online Resource 1 Supplementary Tables 2, 4 and 6 for the outcome of the ER, AR and aromatase ToxCast assays, additional literature and final calls for each chemical and target).

[3] = tested on: ER; parameters: method as in Browne, et al (2015); conditions: ref Browne, et al (2015), cited from earlier work; for ToxCast Pathway Model (AUC): as agonist where given, value above 0.1 = significant interaction
[4] = biological target: T1, human recombinant CYP19A1 (Homo sapiens, UniProt P11511); experiment: Recombinant enzyme aromatase activity inhibition assay; format: biochemical; conditions: follow-up dose–response assay
T1 sequence (P11511 1-503): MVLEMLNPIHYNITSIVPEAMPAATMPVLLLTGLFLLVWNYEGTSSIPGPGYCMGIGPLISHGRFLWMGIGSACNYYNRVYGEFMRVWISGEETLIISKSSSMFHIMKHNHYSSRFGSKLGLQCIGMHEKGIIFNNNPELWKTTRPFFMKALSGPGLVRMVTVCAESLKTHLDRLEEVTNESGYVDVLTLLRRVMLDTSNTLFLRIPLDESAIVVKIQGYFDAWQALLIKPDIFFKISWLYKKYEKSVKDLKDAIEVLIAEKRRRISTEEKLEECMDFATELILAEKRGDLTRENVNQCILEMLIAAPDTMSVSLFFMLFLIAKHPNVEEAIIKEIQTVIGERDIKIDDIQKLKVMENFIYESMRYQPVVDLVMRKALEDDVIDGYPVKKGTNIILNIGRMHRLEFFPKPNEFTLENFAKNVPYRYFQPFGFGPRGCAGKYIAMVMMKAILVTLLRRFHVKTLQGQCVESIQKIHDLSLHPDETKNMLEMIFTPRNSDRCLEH
Experimental: An aromatase inhibition assay was also included in the in vitro assay panel. This enzyme – otherwise known as CYP19A1 - is responsible for converting androgens into estrogens (Blakemore and Naftolin 2016; Bulun 2014); therefore, chemicals that inhibit aromatase activity can lead to reduced estrogen production, which can affect reproductive and developmental processes (Kragie 2002; Tiboni and Ponzano 2016).
The metabolite, estradiol, was measured by time-resolved fluorescence according to the method described previously (Ji et al. 2014). Enzyme inhibition was calculated as a % inhibition of control enzyme activity.

[5] = tested on: H295R cells; experiment: H295R steroidogenesis assay (oestrogen and androgen production); format: cell-based, human; conditions: for minimal effective concentration: Homo sapiens, NCI-H295R, 48 h
Experimental: The in vitro H295R Steroidogenesis Assay is based on the human adenocarcinoma cell line, NCI-H295R, in which the human steroidogenesis pathway is fully functional (OECD 2022). The effect of the test chemical on the production of 17β-estradiol and testosterone is measured using ERα CALUX and AR CALUX technology.
The test chemical was tested in two independent assays, each in triplicate.

[6] = tested on: ER; parameters: method as in Mansouri et al. 2016; conditions: ref Mansouri et al. 2016; cited from earlier work
[7] = tested on: AR; parameters: method as in ToxCast; conditions: ref ToxCast, cited from earlier work; for ToxCast conclusion from assays result: AR sheet; for ToxCast 1: (Active assays), number of positive assays / assays run: ToxCast AR assays
[8] = tested on: AR; experiment: ToxCast AR assays and final ToxCast call; conditions: for Final "true" call (ToxCast): AR effects, from active assays, cytotoxicity and pathway model
From the text: as §1, §2

[9] = tested on: ER; parameters: method as in US EPA ToxCast; conditions: ref US EPA ToxCast, cited from earlier work
[10] = tested on: aromatase; experiment: ToxCast aromatase assays (TOX21_Aromatase_Inhibition) and final ToxCast call; format: cell-based; conditions: for ToxCast result: aromatase overall ToxCast call; for Final "true" call (ToxCast) Aromatase inhibition: from ToxCast assays
From the text: as §2
Aromatase represents only one enzyme involved in steroidogenesis (the conversion of androgens to oestrogens); therefore, the aromatase assay detects effects on 17β-oestradiol production only. […] It is a cell-based assay in which MCF-7 cells are incubated with the test chemical for 24 h before measuring aromatase activities indirectly via a luciferase-based reporter endpoint which is dependent on the binding of the oestradiol–ER complex to the oestrogen response element. A decrease in luciferase activity can occur as a result of direct inhibition of aromatase (preventing the production of oestradiol) or by preventing oestradiol from binding to the ER and thus the binding to the oestrogen RE which initiates the production of luciferase (Lui et al. [2008]).

[11] = tested on: aromatase; parameters: method as in US EPA ToxCast; conditions: ref US EPA ToxCast; cited from earlier work
[12] = tested on: AR; conditions: cited from earlier work; for ToxCast Pathway Model (AUC): AR pathway model, ref Kleinstreuer et al (2017) 10.1021/acs.chemrestox.6b00347
[13] = tested on: human (non-selective) ER; experiment: ER radioligand ([3H]estradiol) receptor-binding assay; conditions: single-dose screening, 10 µM
Experimental: The chemicals were tested for their ability to bind to different targets. […] Chemicals were incubated at 10 µM with cells overexpressing ER or AR for 24 h at 4°C, after which, the binding of the radiolabeled ligand ([^3H]estradiol for ER and [^3H]methyltrienolone for AR) was measured by liquid scintillation counting. An increase or decrease higher than 50% were considered to represent significant effects. Four chemicals were tested in additional incubations at several concentrations up to the maximum soluble concentration for IC50 or EC50 determination for the associated target. Receptor binding was calculated as a % inhibition of the binding of a radioactively labeled ligand specific for each target.
Each test chemical was tested in a single assay in duplicate.

[14] = tested on: MCF-7 cells; conditions: cited from earlier work
[15] = Solubility; format: physicochemical
[16] = UPITT_HCI_U2OS_AR_TIF2_Nucleoli_Antagonist

Compound	Final "true" call (ToxCast) ER [2]	ToxCast Pathway Model (AUC) [3]	ToxCast Pathway Model interaction [3]	CERAPP Potency Level [6]	ToxCast conclusion from assays result [7]	ToxCast 1: (Active assays), number of positive assays / assays run [7]	efficacy (assays Comments) [7, 16]	Final "true" call (ToxCast) [8]	ToxCast 1: (Active assays), positive/total ER assays [9]	ToxCast conclusion from assays result [9]	ToxCast result [10]	Final "true" call (ToxCast) Aromatase inhibition [10]	ToxCast (Aromatase assays), positive/total [11]	ToxCast Pathway Model (AUC) [12]	other results
isoeugenol	Inconclusive	0.0124	no significant interaction	Weak agonist/ antagonist	Endocrine Disruption Potential.Significant Estrogen Receptor activity seen	1/14 positive	Boarderline: less than 50% efficacy (48.8%)	Negative	9/19 positive	Endocrine Disruption Potential.Significant Estrogen Receptor activity seen	Negative	Negative	0/2 positive	AUC = = 0, then there is no significant interaction.	AR antagonism and impact of metabolism [1]: exhibits AR antagonism which is decreased by metabolism; aromatase inhibition outcome [4]: positive; LEC, oestrogen production ([5]; increase): 10 µM; ToxCast 1: (assays Comments) [7, 16]: Only highest concentration above the baseline; ToxCast result ([8]; AR overall call from Supplementary Table 4): Negative; Final "true" call (ToxCast) AR ([8]; from ToxCast assays and ToxCast Pathway Model): Negative; ToxCast 1: (Comments), efficacy ([9]; borderline: less than 50% efficacy): Boarderline: less than 50% efficacy; ToxCast Pathway model, interaction with the AR ([12]; ref Kleinstreuer et al. [2017]): insignificant; inhibition of control specific binding to the ER [13]: less than -25%
C=CCc1ccc(O)c(OC)c1 [eugenol]	–	–	–	–	–	–	–	–	–	–	–	–	–	–	effect on MCF-7 cells [14]: cytotoxicity
CCCCOC(=O)c1ccccc1C(=O)OCc1ccccc1 [BBP, benzyl butyl phthalate]	Positive for agonism	0.18	significant interaction	Very weak antagonist	Endocrine Disruption Potential.Significant Estrogen Receptor activity seen	2/14 positive	Boarderline: less than 50% efficacy (48.9%)	Inconclusive	14/21 positive	Endocrine Disruption Potential.Significant Estrogen Receptor activity seen	Negative	Negative	0/2 positive	AUC = 0, then there is no significant interaction.	ToxCast result (ER) ([2]; overall call from ToxCast data (Supplementary Table 2)): ER agonist only; solubility [15]: ~10 µM (≈ 3.12 µg/mL); minimal effective concentration ([5]; read-out: Steroidogenesis Androgenicity LEC): > 10 µM; minimal effective concentration ([5]; read-out: Steroidogenesis Estrogenicity LEC): > 10 µM; efficacy (assays Comments) ([7]; TOX21_AR_LUC_MDAKB2_Antagonist_0.5nM_R1881): Boarderline: less than 50% efficacy (38.4%)
